Data on 8 molecules can be found in US5116839A, “Use of isoxazolin-3-one derivatives as antidepressants” (Sankyo Company, Limited, priority 1989, dated 1992).

Counter-ions that a name gives are not always drawn.

The subject of data set [1] is spontaneous locomotor activities in mice treated with L-DOPA. As to the kind of experiment: Potentiating effect upon spontaneous locomotor activities in mice treated with L-DOPA. Format: in vivo, mouse (male ddY). The settings on record: for Average locomotor activities (+/- S.E.): 1 hour, MK-486 20 mg/kg i.p. then L-DOPA i.p. The protocol: (§1) The procedure employed in the tests will be explained concretely below:
2. Potentiating effect of compounds upon spontaneous locomotor activities in mice treated with L-DOPA
Male ddY mice (5 weeks old, body weight 30-33 g) were used, after divided into groups each consisting of 5 animals (experiment 1) or 15 animals (experiment 2). The test compounds were prepared as described in the anti-reserpine study, and given orally 20 minutes before administration of MK-486. In control animals, saline was similarly administered. In order to prevent decomposition of L-DOPA at the peripheral site, the mice were intraperitoneally given MK-486 (carbidopa) at a dose of 20 mg/kg and treated intraperitoneally 30 minutes later with L-DOPA. The mice were placed in a cage on a locomotor activity counter (AUTOMEX-11), one-by-one (experiment 1) or 3 mice a cage (experiment 2). Spontaneous locomotor activities were determined for an hour, and the average locomotor activity at each dose was calcultated from 5 counts. The spontaneous locomotor activity in animals treated with the compound was statistically analyzed versus the control group using Student's two-tailed t-test.

Data set [2] can be described thus: Acute toxicity, oral. Format: in vivo. Particulars: 300 mg/kg oral in 0.5% CMC, 5 mice, observed 5 days; Compound 36 as its hydrochloride. As for the experimental part:
Each of the Compounds 11, 36 (as its hydrochloride), 53, 76, and 87 dissolved in a 0.5% CMC solution was orally administered to 5 mice at a dose of 300 mg/kg. Observations were made for a period of 5 days.

Data set [3] deals with reserpine-induced ptosis. Nature of the data set: Effect on reserpine-induced ptosis in the mouse. In kind it is in vivo, mouse (male ddY). Particulars: reserpine 2 mg/kg s.c.; for inhibition at 3 mg/kg / inhibition at 10 mg/kg / inhibition at 30 mg/kg / inhibition at 100 mg/kg: Mus musculus, 1.5 h, scored after 90 minutes, read-out: Inhibition rate (antagonism against reserpine-induced ptosis). As for the experimental part: as §1
1. Effect on reserpine-induced ptosis in the mouse
Male ddY mice (4 weeks of age, body weight 22-27 g) were used, divided into the indicated groups each consisting of 3 or 6 animals. The test compounds were dissolved or suspended in an appropriate solvent (physiological saline, 0.5% CMC or 1% dimethylsulfoxide solution) and were orally administered immediately before treatment with reserpine.
The vials containing the test solutions were labeled with coded ciphers and the administration was carried out in randomized order.
The mice were then subcutaneously treated with reserpine at a dose of 2 mg/kg. After 90 minutes, the extent of ptosis was scored. Grading of the score was based on the shape of eye immediately after the mice were taken out from their cages;
0: round eye shape, as normal
The inhibition rate at each dose was calculated from the scores according to the following equation: [formula] The inhibition rate was then scored on the following basis: […]

Data set [4] relates to spontaneous locomotor activities in mice treated with L-5-HTP. As to the kind of experiment: Potentiating effect upon spontaneous locomotor activities in mice treated with L-5-HTP. In kind it is in vivo, mouse (male ddY). The settings on record: 3 mg/kg oral; MK-486 20 mg/kg i.p.; L-5-HTP 100 mg/kg i.p.; 15 mice; 1 hour; saline 2147(+/-334); P <0.01. As for the experimental part:
as §1
3. Potentiating effect of compounds upon spontaneous locomotor activities in mice treated with L-5-HTP
Male ddY mice (4 weeks old, body weight 22-25 g) were used, after divided into groups each consisting of 15 mice. Before administration of MK-486 (20 mg/kg, IP), either the test compound formulation or vehicle (control group) was orally administered. At 30 min after administration of […], L-5-HTP (100 mg/kg IP) was injected. Spontaneous locomotor activities were determined from 15 minutes after L-5-HTP. For this determination, 3 mice were placed in a locomotor counter (Automex) for an hour and the total count noted. Five such apparatuses were used for each dose, in order to eliminate different sensitivities of each apparatus. Thus, 15 mice were used in total for each dose. The average count and SE were calculated from the 5 determinations for each dose, and statistically analyzed versus control group using Student's two-tailed t-test.

The conditions of data set [5]: apparently exerted; cited from earlier work.

Consider `O=c1cc(-c2ccc(Cl)cc2)on1CC(O)CN1CCOCC1` (stereo not drawn) [Compound 11, 5-p-chlorophenyl-2-(2-hydroxy-3-morpholinopropyl)-4-isoxazolin-3-one], for which the “Spontaneous locomotor activity with treatment of L-DOPA (in words)” value in data set [1] (50 mg/kg) was “significantly increased”. Besides, the “Average locomotor activities (+/- S.E.)” value in data set [1] (experiment 1: 50 mg/kg oral, 5 mice one-by-one, control 160(+/-128), P <0.05) was 3355(+/-878). Also, in data set [2], the “Survival (acute toxicity)” value is recorded as “all the mice survived” and the “Symptoms (acute toxicity)” value was “No particular symptoms were detected”. In data set [3] (3 mg/kg oral), the “Score (antagonism against reserpine-induced ptosis)” value (“Score” below) is “± (41% to 70%)” and the inhibition at 3 mg/kg is 50%. Besides, in data set [3] (10 mg/kg oral), the “Score” value is reported as “± (41% to 70%)” and the inhibition at 10 mg/kg came to 56%. In addition, in data set [3] (30 mg/kg oral), the “Score” value is on record as “+ (71% or more)” and the inhibition at 30 mg/kg was 72%.
On to `O=c1cc(-c2ccc(Cl)cc2)on1C[C@@H](O)CN1CCOCC1` [Compound 22, (S)-5-(p-Chlorophenyl)-2-(2-hydroxy-3-morpholinopropyl)isoxazolin-3-one], for which, in data set [1] (experiment 2: 50 mg/kg oral, 15 mice, 3 mice a cage, control 666(+/-137), P <0.001), the “Average locomotor activities (+/- S.E.)” value is on record as 6013(+/-629). In data set [4], the “Average spontaneous locomotor activity (+/- SE)” value is recorded as 3544(+/-318). Moreover, in data set [3] (3 mg/kg oral), the “Score” value is reported as “± (41% to 70%)” and the inhibition at 3 mg/kg came to 56%. In data set [3] (10 mg/kg oral), the “Score” value is on record as “± (41% to 70%)” and the inhibition at 10 mg/kg was 81%. In data set [3] (30 mg/kg oral), the “Score” value is given as “+ (71% or more)” and the inhibition at 30 mg/kg is 100%.
Take `OC(COc1cc(-c2ccccc2)on1)CN1CCOCC1` (stereo not drawn) [Compound 36, 3-(2-Hydroxy-3-morpholinopropoxy)-5-phenylisoxazole]: in data set [2], the “Survival (acute toxicity)” value is listed as “all the mice survived” and the “Symptoms (acute toxicity)” value is recorded as “No particular symptoms were detected”. In data set [3] (100 mg/kg oral), the “Score” value is listed as “+ (71% or more)” and the inhibition at 100 mg/kg amounted to 71%.
On to `OC(COc1noc(-c2ccccc2)c1Cl)CN1CCOCC1` (stereo not drawn) [Compound 53, 4-Chloro-3-(2-hydroxy-3-morpholino-propoxy)-5-phenylisoxazole], for which, in data set [2], the “Survival (acute toxicity)” value is listed as “all the mice survived” and the “Symptoms (acute toxicity)” value is “No particular symptoms were detected”. Also, in data set [3] (30 mg/kg oral), the “Score” value is recorded as “± (41% to 70%)” and the inhibition at 30 mg/kg is 55%.
`OC(COc1cc(-c2ccc(Cl)cc2)on1)CN1CCOCC1` (stereo not drawn) [Compound 76, 5-(p-Chlorophenyl)-3-(2-hydroxy-3-morpholinopropoxy)isoxazole]: in data set [2], the “Survival (acute toxicity)” value is on record as “all the mice survived” and the “Symptoms (acute toxicity)” value is reported as “No particular symptoms were detected”. In addition, in data set [3] (100 mg/kg oral), the “Score” value was “+ (71% or more)” and the inhibition at 100 mg/kg was determined as 71%.
On to `NC(=O)OCC(O)Cn1oc2ccc(Cl)cc2c1=O` (stereo not drawn) [Compound 87, 2-(3-Carbamoyloxy-2-hydroxypropyl)-5-chlorobenzoisoxazolin-3-one], for which, in data set [2], the “Survival (acute toxicity)” value is reported as “all the mice survived” and the “Symptoms (acute toxicity)” value is “No particular symptoms were detected”. Also, in data set [3] (30 mg/kg oral), the “Score” value is “+ (71% or more)” and the inhibition at 30 mg/kg stood at 75%. Further, in data set [3] (100 mg/kg oral), the “Score” value is recorded as “+ (71% or more)” and the inhibition at 100 mg/kg was 100%.
Take `CN(C)CCCN1c2ccccc2CCc2ccccc21` [Imipramine.HCl, reference compound]: in data set [3] (30 mg/kg oral), the “Score” value was “± (41% to 70%)” and the inhibition at 30 mg/kg was found to be 61%.
As for `CN(C)CCCN1c2ccccc2CCc2ccccc21` [imipramine, 10,11-dihydro-N,N-dimethyl-5H-dibenz[b,f]azepine-5-propanamine], the “Anticholinergic activity of reference (in words)” value in data set [5] is “anticholinergic activity which is apparently exerted”.
